Series [1] in a line: Adverse event monitoring. The class given is in vivo, human (kidney transplant recipients). The following applies: 12 weeks. As to the method: Safety evaluations were conducted through comprehensive monitoring, including physical examinations, clinical laboratory tests, vital signs, and the documentation of adverse events (AEs). Participants were encouraged to voluntarily report AEs regularly throughout the study.

Series [2] can be described thus: Transplant outcomes (eGFR, de novo DSA, BPAR, allograft loss). Particulars: for eGFR: mean ± SD. The class given is in vivo, human (kidney transplant recipients). The protocol:
Patients were randomly assigned to either the P-CAB (tegoprazan 50 mg) group or the PPI (pantoprazole 20 mg) group. Enrolled KTRs were scheduled for four visits at baseline, 4, 8, and 12 weeks post-randomization. The dosage of immunosuppressants remained unchanged throughout the 12-week study period. Blood tests, including measurements of immunosuppressant trough levels, serum creatinine levels, estimated glomerular filtration rate (eGFR), and vital signs, were conducted at each visit. The collected data included patient demographics such as gender, age, height, weight, blood tacrolimus, mycophenolate concentrations, kidney function, liver function tests, allograft loss, and acute rejection episodes. We collected DSA information. DSA was identified using the Luminex single-antigen assay (LSA). […] The secondary outcome included evaluating transplant outcomes and GI symptoms using questionnaires. The transplant outcomes assessed were changes in eGFR, biopsy-proven acute rejection (BPAR), allograft loss, and de novo DSA during the study period. De novo DSA was defined as the new appearance of antibodies against mismatched donor human leukocyte antigen (HLA) not present at baseline.

A short description of series [3]: GI symptom questionnaires (GERD-HRQL, RDQ) via electronic diary app. The class given is in vivo, human (kidney transplant recipients). On the set-up: key to GERD-HRQL score: sum of 10 items each scored 0-5; higher = poorer quality of life. Particulars: mean ± SD. The protocol:
Changes in GI symptoms were measured and recorded using a self-developed electronic diary app installed on participants’ mobile phones. This app facilitated the assessment of GI symptoms through the Gastroesophageal Reflux Disease–Health-Related Quality of Life (GERD-HRQL) and Reflux Disease Questionnaire (RDQ). The GERD-HRQL scale comprises 10 items, addressing both GI symptoms and the patient’s overall condition. Each item is scored on a scale from 0 to 5, with higher scores indicating a poorer quality of life. The RDQ is a 6-item self-administered questionnaire designed to evaluate the severity and frequency of heartburn sensation, gastric acid regurgitation, and dyspepsia.
The secondary outcome included evaluating transplant outcomes and GI symptoms using questionnaires. The transplant outcomes assessed were changes in eGFR, biopsy-proven acute rejection (BPAR), allograft loss, and de novo DSA during the study period. De novo DSA was defined as the new appearance of antibodies against mismatched donor human leukocyte antigen (HLA) not present at baseline.

The conditions of series [4]: result in words, cited from earlier work.
For series [5] the following is noted: result in words, cited from earlier work. The source holds these as a separate data set.
A short description of series [6]: Time in therapeutic range (TTR) analysis of tacrolimus and mycophenolate. The class given is in vivo, human (kidney transplant recipients). Particulars: across all visits; result in words. The protocol:
Continuous variables were expressed as mean ± standard deviation, while categorical variables were presented as numbers and percentages. For normally distributed data, t-tests were utilized; for non-normally distributed data, the Mann–Whitney U test was applied. Intragroup variations between baseline and 12 weeks were analyzed using paired t-tests. Differences in the frequency of transplant outcomes were assessed using the χ^2 test or Fisher’s exact test. Differences in GI symptom questionnaire scores, assessed via e-diary surveys, were analyzed using t-tests or the Mann–Whitney U test, as appropriate. We conducted a TTR analysis for both tacrolimus and mycophenolate to evaluate the potential effects of tegoprazan on immunosuppressant stability. The predefined therapeutic range was set at […] for tacrolimus and at 1–3.5 µg/mL for mycophenolate. TTR was calculated as the proportion of time each drug level remained within the therapeutic window across the study period. All statistical analyses were performed using IBM SPSS Statistics 25 for Windows, […]. A p-value of <0.05 was considered statistically significant.

A short description of series [7]: Tacrolimus blood trough level (12 h post-dose, chemiluminescent immunoassay) in the randomized trial of tegoprazan vs pantoprazole. The class given is in vivo, human (kidney transplant recipients). Particulars: mean ± SD. The source says: (§1) This study was a prospective, open-label, randomized controlled trial conducted on KTRs receiving tacrolimus, mycophenolate, and steroids. This study was registered at the Clinical Research Information Service (CRIS), Republic of Korea (Registration No. KCT 0010481, registration date: 20 May 2025). Data analysis took place at Kyungpook National University Hospital, Republic of Korea, from August 2022 to May 2023. The trial adhered to the approval guidelines of the Institutional Review Board of Kyungpook National University Hospital (IRB No. 2022-02-013, approval date: 31 March 2022).
(§2) Patients were randomly assigned to either the P-CAB (tegoprazan 50 mg) group or the PPI (pantoprazole 20 mg) group. Enrolled KTRs were scheduled for four visits at baseline, 4, 8, and 12 weeks post-randomization. The dosage of immunosuppressants remained unchanged throughout the 12-week study period. Blood tests, including measurements of immunosuppressant trough levels, serum creatinine levels, estimated glomerular filtration rate (eGFR), and vital signs, were conducted at each visit.
(§3) The primary outcome was to compare changes in drug concentrations of tacrolimus and mycophenolate following the administration of tegoprazan in KTRs.
(§4) Trough levels of tacrolimus and mycophenolate were measured at 12 h post-dose, following standard clinical practice for therapeutic drug monitoring in transplant recipients. Blood samples were collected at scheduled morning visits, and the 12 h interval was confirmed using electronic pillbox adherence data or patient interviews. Tacrolimus concentrations were measured using the Dimension® TAC Flex® reagent cartridge (Siemens Healthcare Diagnostics Inc., Newark, NJ, USA) on the Siemens Dimension® Integrated Chemistry System, employing a homogeneous chemiluminescent immunoassay (CLIA) method. Mycophenolic acid concentrations were measured using the Dimension® MPA Flex® reagent cartridge (Siemens Healthcare Diagnostics Inc., Newark, USA) on the same system, based on a particle-enhanced turbidimetric inhibition immunoassay (PETINIA) method. All assays were conducted in the Department of Laboratory Medicine at the study hospital.

The nature of series [8]: Mycophenolate (mycophenolic acid) trough level (12 h post-dose, PETINIA immunoassay) in the randomized trial of tegoprazan vs pantoprazole. The following applies: mean ± SD. The class given is in vivo, human (kidney transplant recipients).
From the text: as §1, §2, §3, §4

The mark [9] stands for this setting: during the 12-week study period.
Setting [10] is: P-CAB group (tegoprazan 50 mg, n = 26), Baseline.
The mark [11] stands for this setting: P-CAB group (tegoprazan 50 mg, n = 26), Week 4.
Where [12] appears, read: P-CAB group (tegoprazan 50 mg, n = 26), Week 8.
The mark [13] stands for this setting: P-CAB group (tegoprazan 50 mg, n = 26), Week 12.
Setting [14] is: PPI group (pantoprazole 20 mg, n = 25), Baseline.
Where [15] appears, read: PPI group (pantoprazole 20 mg, n = 25), Week 4.
Where [16] appears, read: PPI group (pantoprazole 20 mg, n = 25), Week 8.
The mark [17] stands for this setting: PPI group (pantoprazole 20 mg, n = 25), Week 12.

We go through four compounds from PMC12196455, “Effect of Tegoprazan on Tacrolimus and Mycophenolate Levels in Kidney Transplant Recipients: A Randomized Controlled Study Using a Smart Trial Platform” (Pharmaceuticals, 2025).

Structures are written as SMILES.

Regarding `COc1ccnc(C[S+]([O-])c2nc3ccc(OC(F)F)cc3[nH]2)c1OC` (centres unmarked) [PPI, pantoprazole], in series [1], the “AE: Abdominal discomfort” value is listed as 2 (8.0) number (%), the “AE: Arthralgia” value is 0 (0.0) number (%), the “AE: COVID-19” value is recorded as 2 (8.0) number (%) and the “AE: Constipation” value is given as 0 (0.0) number (%). For the same compound, in series [1], the “AE: Diarrhea” value was 0 (0.0) number (%), the “AE: Headache” value is on record as 1 (4.0) number (%), the “AE: Hypertension” value is 0 (0.0) number (%) and the “AE: Hypoglycemia” value is 0 (0.0) number (%). For the same compound, in series [1], the “AE: Myalgia” value was 1 (4.0) number (%); the “AE: Nausea, vomiting” value is 0 (0.0) number (%); the “AE: Productive cough, sputum” value is 0 (0.0) number (%); the “AE: Pyrexia” value is 1 (4.0) number (%). In series [1], the “AE: Toothache” value is reported as 1 (4.0) number (%), the “AE: Upper respiratory tract infection” value is 1 (4.0) number (%), the “AE: Urinary tract infection” value is given as 1 (4.0) number (%) and the “AE: Vertigo” value is reported as 1 (4.0) number (%). Moreover, in series [1], the “Participants with AEs” value is 7 (28.0) number (%), the “Participants with SAEs” value is on record as 0 (0.0) number (%) and the “Withdrawal due to AEs” value is listed as 0 (0.0) number (%). In addition, the “Overall incidence of AEs” value in series [1] (p = 0.032 between groups) worked out at 28.0%. The eGFR in series [2] (Baseline) was 57.7 ± 14.9 mL/min/1.73 m^2. In addition, in series [2] (Week 4), the eGFR is given as 60.1 ± 14.8 mL/min/1.73 m^2. Further, in series [2] (Week 8), the eGFR is 63.6 ± 14.1 mL/min/1.73 m^2. This compound had an eGFR in series [2] (Week 12) of 60.6 ± 14.7 mL/min/1.73 m^2. For the same compound, in series [2] (setting [9]), the “Allograft Loss” value was found to be 0 number and the BPAR stood at 0 number. The same compound had an RDQ score in series [3] (Baseline) of 3.2 ± 3.3. This compound also yielded a GERD-HRQL score in series [3] (Baseline, higher score = poorer quality of life) of 2.8 ± 2.3. In series [3] (Week 4), this compound gave a GERD-HRQL score of 0.7 ± 1.2 and an RDQ score of 0.3 ± 0.9. In series [3] (Week 8), this compound yielded a GERD-HRQL score of 0.9 ± 1.8 and an RDQ score of 0.4 ± 1.0. In series [3] (Week 12), this compound yielded a GERD-HRQL score of 0.5 ± 1.1 and an RDQ score of 0.7 ± 2.0. In addition, the “Effect on trough levels of tacrolimus and cyclosporine” value in series [4] (12 solid organ transplant patients, five consecutive days of therapy) is listed as “did not affect”. Moreover, the “Effect on serum trough levels of tacrolimus” value in series [4] (liver transplant recipients, co-administration over one year) is reported as “does not influence”.

Take `CNCc1cc(-c2ccccc2F)n(S(=O)(=O)c2cccnc2)c1` [vonoprazan]: the “Effect on tacrolimus concentration” value in series [5] (KTRs, switching from rabeprazole to vonoprazan, two retrospective studies) is recorded as “increased”. Further, in series [5] (conversion from rabeprazole to vonoprazan, regardless of CYP3A5 genotypes), the “Effect on tacrolimus trough levels” value was “did not alter”.

Regarding `C=CC[C@@H]1/C=C(\C)C[C@H](C)C[C@H](OC)[C@H]2O[C@@](O)(C(=O)C(=O)N3CCCC[C@H]3C(=O)O[C@H](/C(C)=C/[C@@H]3CC[C@@H](O)[C@H](OC)C3)[C@H](C)[C@@H](O)CC1=O)[C@H](C)C[C@@H]2OC` [Tacrolimus, tacrolimus], the “Time in therapeutic range (TTR), P-CAB vs PPI group” value in series [6] is given as “comparable between the two groups”. For the same compound, the Tacrolimus trough level is on record as 5.0 ± 1.6 ng/mL in series [7] (setting [10]); 5.3 ± 1.3 ng/mL in series [7] (setting [11]); 6.3 ± 1.9 ng/mL in series [7] (setting [12]); 5.5 ± 1.6 ng/mL in series [7] (setting [13]); 5.4 ± 1.4 ng/mL in series [7] (setting [14]); 5.5 ± 1.6 ng/mL in series [7] (setting [15]). In addition, the values for the Tacrolimus trough level in series [7] (setting [16]) and in series [7] (setting [17]) were 5.7 ± 2.4 ng/mL and 5.8 ± 2.0 ng/mL, respectively.

On to `COc1c(C)c2c(c(O)c1C/C=C(\C)CCC(=O)O)C(=O)OC2` [Mycophenolate, mycophenolate], for which the Mycophenolate trough level in series [8] (setting [10]) is recorded as 2.3 ± 1.4 µg/mL; in series [8] (setting [11]), 2.5 ± 1.1 µg/mL; in series [8] (setting [12]), 2.8 ± 1.8 µg/mL; in series [8] (setting [13]), 2.7 ± 1.4 µg/mL; in series [8] (setting [14]), 2.6 ± 1.3 µg/mL; in series [8] (setting [15]), 2.7 ± 1.1 µg/mL. The Mycophenolate trough level in series [8] (setting [16]) turned out to be 2.7 ± 2.4 µg/mL; in series [8] (setting [17]), 2.6 ± 1.4 µg/mL. For the same compound, the “Time in therapeutic range (TTR), P-CAB vs PPI group” value in series [6] is “comparable between the two groups”.
